Reference: PubChem BioAssay AID2060888 (Molecular Pharmacology Branch, DTP, NCI, 2025)

Tested on: 695427-040-R-J1-PDC complex spheroid viability
Experiment: Anticancer human tumor 695427-040-R-J1-PDC patient-derived colon adenocarcinoma cell line growth inhibition [RAS]
Settings: for viability, T/C: stronger effect = lower value
Outline: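 Tumour cells grown as complex spheroids with HUVEC endothelial cells and mesenchymal stem cells, treated with RAS pathway inhibitor combinations. Each agent spans half-log steps from near clinical Cmax, or 10 microM where Cmax is unknown.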

[1] = curve of first compound, second compound 0.000949 µM
[2] = curve of first compound, second compound 0.003 µM
[3] = curve of first compound, second compound 0.00949 µM
[4] = curve of first compound, second compound 0.03 µM
[5] = curve of first compound, second compound 0.0949 µM
[6] = curve of first compound, second compound 0.3 µM
[7] = second compound 0.000949 µM, first compound 0.0316 µM
[8] = second compound 0.000949 µM, first compound 0.1 µM
[9] = second compound 0.000949 µM, first compound 0.316 µM
[10] = second compound 0.000949 µM, first compound 1 µM
[11] = second compound 0.003 µM, first compound 0.0316 µM
[12] = second compound 0.003 µM, first compound 0.1 µM
[13] = second compound 0.003 µM, first compound 0.316 µM
[14] = second compound 0.003 µM, first compound 1 µM
[15] = second compound 0.00949 µM, first compound 0.0316 µM
[16] = second compound 0.00949 µM, first compound 0.1 µM
[17] = second compound 0.00949 µM, first compound 0.316 µM
[18] = second compound 0.00949 µM, first compound 1 µM
[19] = second compound 0.03 µM, first compound 0.0316 µM
[20] = second compound 0.03 µM, first compound 0.1 µM
[21] = second compound 0.03 µM, first compound 0.316 µM
[22] = second compound 0.03 µM, first compound 1 µM
[23] = second compound 0.0949 µM, first compound 0.0316 µM
[24] = second compound 0.0949 µM, first compound 0.1 µM
[25] = second compound 0.0949 µM, first compound 0.316 µM
[26] = second compound 0.0949 µM, first compound 1 µM
[27] = second compound 0.3 µM, first compound 0.0316 µM
[28] = second compound 0.3 µM, first compound 0.1 µM
[29] = second compound 0.3 µM, first compound 0.316 µM
[30] = second compound 0.3 µM, first compound 1 µM
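Also: viability read after seven days of drug exposure.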
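For viability, T/C in this document: 100% = DMSO vehicle control viability.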

For O=C(c1ccc(F)c(F)c1Nc1ccc(I)cc1F)N1CC(O)([C@@H]2CCCCN2)C1 + CCn1c(-c2cccnc2C(C)OC)c2c3cc(ccc31)N1CCOC(CC(NC(=O)C(C(C)C)N(C)C(=O)C3(F)CCN(C(=O)C#CC(C)(C)N(C)C)CC3)C(=O)N3CCCC(N3)C(=O)OCC(C)(C)C2)C1, the IC50 [1] was 0.0812 µM, the IC50 [2] was 0.0855 µM and the IC50 [3] was 0.0803 µM. For the same compound, the IC50 [4] was 0.067 µM, the IC50 [5] was 0.0664 µM and the IC50 [6] was 0.0354 µM. It also gave a viability, T/C (second compound 0.000949 µM, first compound 0.00316 µM) of 71.6%, a viability, T/C (second compound 0.000949 µM, first compound 0.01 µM) of 85.1% and a viability, T/C [7] of 71%. It also gave a viability, T/C [8] of 44.4%, a viability, T/C [9] of 19.4% and a viability, T/C [10] of 9.33%. It also gave a viability, T/C (second compound 0.003 µM, first compound 0.00316 µM) of 91.1%, a viability, T/C (second compound 0.003 µM, first compound 0.01 µM) of 88.8% and a viability, T/C [11] of 66.6%. For the same compound, the viability, T/C [12] was 51.4%, the viability, T/C [13] was 17.6% and the viability, T/C [14] was 6.84%. For the same compound, the viability, T/C (second compound 0.00949 µM, first compound 0.00316 µM) was 88.6%, the viability, T/C (second compound 0.00949 µM, first compound 0.01 µM) was 67.5% and the viability, T/C [15] was 69.9%. For the same compound, the viability, T/C [16] was 48.1%, the viability, T/C [17] was 22.3% and the viability, T/C [18] was 9.42%. It also gave a viability, T/C (second compound 0.03 µM, first compound 0.00316 µM) of 105%, a viability, T/C (second compound 0.03 µM, first compound 0.01 µM) of 80.2% and a viability, T/C [19] of 66.3%. For the same compound, the viability, T/C [20] was 42.9%, the viability, T/C [21] was 22.1% and the viability, T/C [22] was 7.71%. The viability, T/C (second compound 0.0949 µM, first compound 0.00316 µM) was 81.5%, the viability, T/C (second compound 0.0949 µM, first compound 0.01 µM) was 84% and the viability, T/C [23] was 60.6%. For the same compound, the viability, T/C [24] was 43.1%, the viability, T/C [25] was 20.8% and the viability, T/C [26] was 7.03%. It also gave a viability, T/C (second compound 0.3 µM, first compound 0.00316 µM) of 73.4%, a viability, T/C (second compound 0.3 µM, first compound 0.01 µM) of 65.5% and a viability, T/C [27] of 47%. For the same compound, the viability, T/C [28] was 42%, the viability, T/C [29] was 19.2% and the viability, T/C [30] was 6.79%.

With O=C(c1ccc(F)c(F)c1Nc1ccc(I)cc1F)N1CC(O)([C@@H]2CCCCN2)C1 the viability, T/C (compound 0.00316 µM) was 96.2% [middle of 4 runs], the viability, T/C (compound 0.0316 µM) was 63.3% [middle of 4 runs] and the viability, T/C (compound 0.1 µM) was 50.1% [middle of 4 runs]. The viability, T/C (compound 0.316 µM) was 23.3% [middle of 4 runs], the viability, T/C (compound 1 µM) was 6.95% [middle of 4 runs] and the IC50 (curve of compound) was 77.1 nM [middle of 4 runs].

In the case of NC1c2ccccc2OC12CCN(c1cnc3c(N4CCCc5ncccc54)n[nH]c3n1)CC2 (stereo not drawn), the viability, T/C (compound 0.0316 µM) is reported as 78.6% [middle of 4 runs], the viability, T/C (compound 0.1 µM) is reported as 64.9% [middle of 4 runs] and the viability, T/C (compound 0.316 µM) is reported as 64.5% [middle of 4 runs]. The viability, T/C (compound 1 µM) was 55.7% [middle of 4 runs], the viability, T/C (compound 3.16 µM) was 49.4% [middle of 4 runs] and the viability, T/C (compound 10 µM) was 43.5% [middle of 4 runs].

For CC(C)NCC(C(=O)N1CCN(c2ncnc3c2C(C)CC3O)CC1)c1ccc(Cl)cc1 (stereo not drawn) + C#Cc1c(F)ccc2cc(O)cc(-c3ncc4c(N5CC6CCC(C5)N6)nc(OCC56CCCN5CC(F)C6)nc4c3F)c12, the IC50 (curve of first compound, second compound 0.0316 µM) was greater than 10 µM, the IC50 (curve of first compound, second compound 0.1 µM) was greater than 10 µM and the IC50 (curve of first compound, second compound 0.316 µM) was greater than 10 µM. It also gave an IC50 (curve of first compound, second compound 1 µM) greater than 10 µM, an IC50 (curve of first compound, second compound 3.16 µM) of 0.773 µM and an IC50 (curve of first compound, second compound 10 µM) of less than 0.0316 µM. For the same compound, the viability, T/C (second compound 0.0316 µM, first compound 0.0316 µM) was 111%, the viability, T/C (second compound 0.0316 µM, first compound 0.1 µM) was 92.8% and the viability, T/C (second compound 0.0316 µM, first compound 0.316 µM) was 89.6%. It also gave a viability, T/C (second compound 0.0316 µM, first compound 1 µM) of 84%, a viability, T/C (second compound 0.0316 µM, first compound 3.16 µM) of 89.6% and a viability, T/C (second compound 0.0316 µM, first compound 10 µM) of 103%. It also gave a viability, T/C (second compound 0.1 µM, first compound 0.0316 µM) of 92.6%, a viability, T/C (second compound 0.1 µM, first compound 0.1 µM) of 78.7% and a viability, T/C (second compound 0.1 µM, first compound 0.316 µM) of 83.7%. For the same compound, the viability, T/C (second compound 0.1 µM, first compound 1 µM) was 71%, the viability, T/C (second compound 0.1 µM, first compound 3.16 µM) was 94.8% and the viability, T/C (second compound 0.1 µM, first compound 10 µM) was 92.3%. The viability, T/C (second compound 0.316 µM, first compound 0.0316 µM) was 83.7%, the viability, T/C (second compound 0.316 µM, first compound 0.1 µM) was 85.8% and the viability, T/C (second compound 0.316 µM, first compound 0.316 µM) was 82.7%. The viability, T/C (second compound 0.316 µM, first compound 1 µM) was 73.3%, the viability, T/C (second compound 0.316 µM, first compound 3.16 µM) was 76.6% and the viability, T/C (second compound 0.316 µM, first compound 10 µM) was 82.2%. The viability, T/C (second compound 1 µM, first compound 0.0316 µM) was 66.2%, the viability, T/C (second compound 1 µM, first compound 0.1 µM) was 60.2% and the viability, T/C (second compound 1 µM, first compound 0.316 µM) was 60.3%. It also gave a viability, T/C (second compound 1 µM, first compound 1 µM) of 60.9%, a viability, T/C (second compound 1 µM, first compound 3.16 µM) of 67.2% and a viability, T/C (second compound 1 µM, first compound 10 µM) of 60.3%. For the same compound, the viability, T/C (second compound 3.16 µM, first compound 0.0316 µM) was 59.6%, the viability, T/C (second compound 3.16 µM, first compound 0.1 µM) was 65.5% and the viability, T/C (second compound 3.16 µM, first compound 0.316 µM) was 48.7%. For the same compound, the viability, T/C (second compound 3.16 µM, first compound 1 µM) was 46.3%, the viability, T/C (second compound 3.16 µM, first compound 3.16 µM) was 48.5% and the viability, T/C (second compound 3.16 µM, first compound 10 µM) was 39.2%. The viability, T/C (second compound 10 µM, first compound 0.0316 µM) was 33.6%, the viability, T/C (second compound 10 µM, first compound 0.1 µM) was 44.1% and the viability, T/C (second compound 10 µM, first compound 0.316 µM) was 34.4%. For the same compound, the viability, T/C (second compound 10 µM, first compound 1 µM) was 32.3%, the viability, T/C (second compound 10 µM, first compound 3.16 µM) was 26.1% and the viability, T/C (second compound 10 µM, first compound 10 µM) was 18.7%.

In the case of CC(C)NCC(C(=O)N1CCN(c2ncnc3c2C(C)CC3O)CC1)c1ccc(Cl)cc1 (stereo not drawn) + CCn1c(-c2cc(N3CCN(C)CC3)cnc2C(C)OC)c2c3cc(ccc31)-c1csc(n1)CC(NC(=O)C1CC1C)C(=O)N1CCCC(N1)C(=O)OCC(C)(C)C2, the IC50 [1] is reported as greater than 10 µM, the IC50 [2] is reported as greater than 10 µM and the IC50 [3] is reported as greater than 10 µM. The IC50 [4] was 4.05 µM, the IC50 [5] was less than 0.0316 µM and the IC50 [6] was less than 0.0316 µM. The viability, T/C [7] was 84.9%, the viability, T/C [8] was 98.1% and the viability, T/C [9] was 78.2%. It also gave a viability, T/C [10] of 89.4%, a viability, T/C (second compound 0.000949 µM, first compound 3.16 µM) of 60.6% and a viability, T/C (second compound 0.000949 µM, first compound 10 µM) of 54.8%. The viability, T/C [11] was 107%, the viability, T/C [12] was 85.5% and the viability, T/C [13] was 96.5%. For the same compound, the viability, T/C [14] was 73%, the viability, T/C (second compound 0.003 µM, first compound 3.16 µM) was 85.6% and the viability, T/C (second compound 0.003 µM, first compound 10 µM) was 59.2%. It also gave a viability, T/C [15] of 74.4%, a viability, T/C [16] of 81.3% and a viability, T/C [17] of 65%. It also gave a viability, T/C [18] of 59.1%, a viability, T/C (second compound 0.00949 µM, first compound 3.16 µM) of 85.3% and a viability, T/C (second compound 0.00949 µM, first compound 10 µM) of 54.1%. It also gave a viability, T/C [19] of 51.4%, a viability, T/C [20] of 54.6% and a viability, T/C [21] of 51.4%. The viability, T/C [22] was 52.5%, the viability, T/C (second compound 0.03 µM, first compound 3.16 µM) was 60.1% and the viability, T/C (second compound 0.03 µM, first compound 10 µM) was 35.1%. For the same compound, the viability, T/C [23] was 36.4%, the viability, T/C [24] was 45.1% and the viability, T/C [25] was 39.2%. For the same compound, the viability, T/C [26] was 36%, the viability, T/C (second compound 0.0949 µM, first compound 3.16 µM) was 41.9% and the viability, T/C (second compound 0.0949 µM, first compound 10 µM) was 24.6%. The viability, T/C [27] was 36.9%, the viability, T/C [28] was 28.7% and the viability, T/C [29] was 35.5%. It also gave a viability, T/C [30] of 30.8%, a viability, T/C (second compound 0.3 µM, first compound 3.16 µM) of 27.9% and a viability, T/C (second compound 0.3 µM, first compound 10 µM) of 15.5%.
